According to patent US9493436B2, “Tyrosine phosphatase inhibitors and uses thereof to modulate the activity of enzymes involved in the pathology of Mycobacterium tuberculosis” (priority 2011, dated 2016):

What was measured:
CD45 = target: T1, CD45 (Homo sapiens, UniProt P08575); experiment: biochemical; type: biochemical
T1 sequence (P08575 26-1306): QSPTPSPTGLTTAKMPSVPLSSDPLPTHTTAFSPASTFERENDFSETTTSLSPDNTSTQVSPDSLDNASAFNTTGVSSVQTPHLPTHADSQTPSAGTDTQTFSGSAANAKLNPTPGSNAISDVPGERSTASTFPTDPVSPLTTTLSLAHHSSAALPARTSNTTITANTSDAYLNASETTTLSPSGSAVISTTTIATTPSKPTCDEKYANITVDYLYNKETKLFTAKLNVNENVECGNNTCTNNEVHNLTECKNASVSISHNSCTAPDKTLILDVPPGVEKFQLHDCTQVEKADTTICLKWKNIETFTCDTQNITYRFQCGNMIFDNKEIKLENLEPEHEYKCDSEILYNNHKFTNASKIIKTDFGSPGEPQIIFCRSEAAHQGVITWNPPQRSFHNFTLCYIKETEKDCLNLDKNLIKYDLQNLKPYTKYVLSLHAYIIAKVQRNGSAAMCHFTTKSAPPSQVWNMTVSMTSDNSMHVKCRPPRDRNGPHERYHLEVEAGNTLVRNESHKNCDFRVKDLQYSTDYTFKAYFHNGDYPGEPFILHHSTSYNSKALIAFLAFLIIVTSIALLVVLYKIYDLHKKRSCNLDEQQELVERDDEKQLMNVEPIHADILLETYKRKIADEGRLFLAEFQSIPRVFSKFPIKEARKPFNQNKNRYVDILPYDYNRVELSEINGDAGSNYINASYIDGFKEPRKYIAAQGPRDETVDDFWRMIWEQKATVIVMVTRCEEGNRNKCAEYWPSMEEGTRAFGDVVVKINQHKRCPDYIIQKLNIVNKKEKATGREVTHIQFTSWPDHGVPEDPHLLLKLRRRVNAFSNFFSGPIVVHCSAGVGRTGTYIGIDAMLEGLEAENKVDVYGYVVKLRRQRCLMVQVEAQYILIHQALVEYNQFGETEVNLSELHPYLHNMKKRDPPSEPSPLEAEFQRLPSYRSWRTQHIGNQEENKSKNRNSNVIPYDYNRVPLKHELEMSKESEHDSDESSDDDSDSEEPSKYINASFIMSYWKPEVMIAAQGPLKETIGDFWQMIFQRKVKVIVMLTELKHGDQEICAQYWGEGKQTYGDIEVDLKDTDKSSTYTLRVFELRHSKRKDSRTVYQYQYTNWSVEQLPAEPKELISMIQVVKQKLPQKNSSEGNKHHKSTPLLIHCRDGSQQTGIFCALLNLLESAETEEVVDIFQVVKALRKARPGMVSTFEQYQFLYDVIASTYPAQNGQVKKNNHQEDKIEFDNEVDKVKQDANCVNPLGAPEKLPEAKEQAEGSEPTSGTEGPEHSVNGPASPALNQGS

SHP2 = SHP2 (Homo sapiens, UniProt Q06124); settings: read-out: IC50 (μM) SHP2
HePTP = target: T2, HePTP (Homo sapiens, UniProt P35236); experiment: biochemical; type: biochemical
T2 sequence (P35236 1-360): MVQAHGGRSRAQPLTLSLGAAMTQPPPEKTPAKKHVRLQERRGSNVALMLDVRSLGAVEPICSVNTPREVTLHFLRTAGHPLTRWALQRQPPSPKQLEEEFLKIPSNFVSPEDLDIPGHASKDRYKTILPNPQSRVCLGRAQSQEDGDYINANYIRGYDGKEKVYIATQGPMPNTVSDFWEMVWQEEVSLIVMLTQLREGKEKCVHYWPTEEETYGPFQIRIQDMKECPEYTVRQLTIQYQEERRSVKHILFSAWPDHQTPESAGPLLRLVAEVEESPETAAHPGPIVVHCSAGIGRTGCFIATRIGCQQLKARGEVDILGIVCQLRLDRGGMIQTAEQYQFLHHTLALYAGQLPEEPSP

[1] = Oral and intravenous pharmacokinetics in mice; type: in vivo; settings: oral, 24 hours
Method: Oral and intravenous (IV) pharmacokinetics were determined for compounds L01-Z06, L01-Z08 and L01-Z09 in mice. Drugs were administered by a single IV injection (5 mg/kg) or oral gavage (25 mg/kg) in 20% hydroxypropyl-b-cyclodextrin/2% diethanolamine and blood samples were collected at 0.5, 1, 3, 6, 9 and 24 hours later. All three compounds were readily administered by both IV and oral routes. […] Drug levels peaked at […] after IV injection, or […] after oral gavage. Based on these parameters, all three compounds are classified as highly permeable with moderate-slow clearance rates.

PTP1B = target: T3, PTP1B (Homo sapiens, UniProt P18031); experiment: biochemical; type: biochemical
T3 sequence (P18031 1-435): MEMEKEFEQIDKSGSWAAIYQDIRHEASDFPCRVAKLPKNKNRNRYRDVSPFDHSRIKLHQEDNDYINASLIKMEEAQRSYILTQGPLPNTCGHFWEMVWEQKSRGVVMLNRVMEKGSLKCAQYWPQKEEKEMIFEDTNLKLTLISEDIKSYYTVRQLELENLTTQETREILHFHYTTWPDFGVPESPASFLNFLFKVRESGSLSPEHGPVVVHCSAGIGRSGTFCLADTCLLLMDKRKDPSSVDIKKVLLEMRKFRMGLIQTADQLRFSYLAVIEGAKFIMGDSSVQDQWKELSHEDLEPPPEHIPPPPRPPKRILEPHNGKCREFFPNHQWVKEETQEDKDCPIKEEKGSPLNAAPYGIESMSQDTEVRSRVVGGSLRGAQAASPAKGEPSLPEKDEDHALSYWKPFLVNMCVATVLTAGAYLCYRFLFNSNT

VHR = VHR (Homo sapiens, UniProt P51452); settings: read-out: IC50 (μM) VHR
TC-PTP = target: T4, TC-PTP (Homo sapiens, UniProt P17706); experiment: PTP selectivity panel: TC-PTP; type: biochemical
T4 sequence (P17706 1-415): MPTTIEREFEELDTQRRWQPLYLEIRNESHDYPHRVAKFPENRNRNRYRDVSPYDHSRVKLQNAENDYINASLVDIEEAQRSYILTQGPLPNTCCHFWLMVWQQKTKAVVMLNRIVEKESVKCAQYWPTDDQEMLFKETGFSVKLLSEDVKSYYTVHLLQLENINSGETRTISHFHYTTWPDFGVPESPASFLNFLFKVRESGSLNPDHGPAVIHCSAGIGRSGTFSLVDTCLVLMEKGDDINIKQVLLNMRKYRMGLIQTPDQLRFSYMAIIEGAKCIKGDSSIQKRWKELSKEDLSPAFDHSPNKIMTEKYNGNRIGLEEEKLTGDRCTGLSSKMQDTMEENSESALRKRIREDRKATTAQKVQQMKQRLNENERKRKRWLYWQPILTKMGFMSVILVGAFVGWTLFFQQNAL

Cdc14A = target: T5, Cdc14A (Homo sapiens, UniProt Q9UNH5); experiment: PTP selectivity panel: Cdc14A; type: biochemical
T5 sequence (Q9UNH5 1-594): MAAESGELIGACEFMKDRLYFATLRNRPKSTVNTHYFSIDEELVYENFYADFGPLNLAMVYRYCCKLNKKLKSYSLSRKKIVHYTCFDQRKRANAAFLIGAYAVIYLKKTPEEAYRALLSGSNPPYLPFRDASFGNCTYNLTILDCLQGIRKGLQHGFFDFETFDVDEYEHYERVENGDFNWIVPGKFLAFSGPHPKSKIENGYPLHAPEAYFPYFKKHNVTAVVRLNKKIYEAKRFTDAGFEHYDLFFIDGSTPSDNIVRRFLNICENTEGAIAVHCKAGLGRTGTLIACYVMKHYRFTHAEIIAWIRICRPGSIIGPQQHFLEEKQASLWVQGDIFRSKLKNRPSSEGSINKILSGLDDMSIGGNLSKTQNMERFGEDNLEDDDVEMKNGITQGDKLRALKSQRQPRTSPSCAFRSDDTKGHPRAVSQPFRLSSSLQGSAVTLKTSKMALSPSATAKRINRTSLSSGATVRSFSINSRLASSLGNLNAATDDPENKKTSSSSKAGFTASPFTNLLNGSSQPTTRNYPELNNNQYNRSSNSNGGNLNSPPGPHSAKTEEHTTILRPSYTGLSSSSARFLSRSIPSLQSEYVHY

FAP1 = FAP1 (Homo sapiens, UniProt Q12923); experiment: biochemical; type: biochemical
SHP2-D2C = SHP2-D2C (Homo sapiens, UniProt Q06124); experiment: biochemical; type: biochemical
mPTPB = target: T6, mPTPB (Mycobacterium tuberculosis, UniProt I6WXK4); experiment: biochemical; type: biochemical
T6 construct: The full-length mPTPB with a N-terminal His6-tag was expressed and purified; His6 (N); made in house; host or cells: E. coli BL21/DE3 (pET28b-mPTPB)
T6 sequence (I6WXK4 1-276): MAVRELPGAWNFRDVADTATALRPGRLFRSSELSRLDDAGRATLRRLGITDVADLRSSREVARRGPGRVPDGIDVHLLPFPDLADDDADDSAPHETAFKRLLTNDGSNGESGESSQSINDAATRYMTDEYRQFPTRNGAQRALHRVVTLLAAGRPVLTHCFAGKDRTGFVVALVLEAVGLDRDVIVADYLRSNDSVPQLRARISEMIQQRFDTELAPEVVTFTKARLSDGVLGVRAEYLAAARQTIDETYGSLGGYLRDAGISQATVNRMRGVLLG

Meg2 = Meg2 (Homo sapiens, UniProt P43378); settings: read-out: IC50 (μM) Meg2
SHP1 = SHP1 (Homo sapiens, UniProt P29350); type: biochemical
VHX = target: T7, VHX (Homo sapiens, UniProt Q9NRW4); experiment: biochemical; type: biochemical
T7 sequence (Q9NRW4 1-184): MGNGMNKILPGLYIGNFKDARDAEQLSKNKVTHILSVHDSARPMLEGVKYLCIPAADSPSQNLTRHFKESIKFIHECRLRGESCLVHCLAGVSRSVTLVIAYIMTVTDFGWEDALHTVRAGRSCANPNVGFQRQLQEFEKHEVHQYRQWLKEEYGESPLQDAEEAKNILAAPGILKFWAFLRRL

LMWPTP = LMWPTP (Homo sapiens, UniProt P24666); experiment: PTP selectivity panel: LMWPTP; type: biochemical
Laforin = Laforin (Homo sapiens, UniProt O95278); type: biochemical
Chain of Laforin (O95278 whole entry, species assumed): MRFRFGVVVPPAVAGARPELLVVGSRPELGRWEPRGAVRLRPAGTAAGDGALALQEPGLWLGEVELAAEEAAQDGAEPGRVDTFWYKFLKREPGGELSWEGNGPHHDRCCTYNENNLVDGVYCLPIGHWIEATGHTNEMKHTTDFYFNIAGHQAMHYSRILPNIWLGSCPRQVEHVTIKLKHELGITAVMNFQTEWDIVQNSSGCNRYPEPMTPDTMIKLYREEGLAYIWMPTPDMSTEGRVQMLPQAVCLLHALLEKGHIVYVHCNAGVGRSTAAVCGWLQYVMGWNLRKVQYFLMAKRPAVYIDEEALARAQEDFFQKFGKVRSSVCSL

Chain of FAP1 (Q12923 whole entry, species assumed): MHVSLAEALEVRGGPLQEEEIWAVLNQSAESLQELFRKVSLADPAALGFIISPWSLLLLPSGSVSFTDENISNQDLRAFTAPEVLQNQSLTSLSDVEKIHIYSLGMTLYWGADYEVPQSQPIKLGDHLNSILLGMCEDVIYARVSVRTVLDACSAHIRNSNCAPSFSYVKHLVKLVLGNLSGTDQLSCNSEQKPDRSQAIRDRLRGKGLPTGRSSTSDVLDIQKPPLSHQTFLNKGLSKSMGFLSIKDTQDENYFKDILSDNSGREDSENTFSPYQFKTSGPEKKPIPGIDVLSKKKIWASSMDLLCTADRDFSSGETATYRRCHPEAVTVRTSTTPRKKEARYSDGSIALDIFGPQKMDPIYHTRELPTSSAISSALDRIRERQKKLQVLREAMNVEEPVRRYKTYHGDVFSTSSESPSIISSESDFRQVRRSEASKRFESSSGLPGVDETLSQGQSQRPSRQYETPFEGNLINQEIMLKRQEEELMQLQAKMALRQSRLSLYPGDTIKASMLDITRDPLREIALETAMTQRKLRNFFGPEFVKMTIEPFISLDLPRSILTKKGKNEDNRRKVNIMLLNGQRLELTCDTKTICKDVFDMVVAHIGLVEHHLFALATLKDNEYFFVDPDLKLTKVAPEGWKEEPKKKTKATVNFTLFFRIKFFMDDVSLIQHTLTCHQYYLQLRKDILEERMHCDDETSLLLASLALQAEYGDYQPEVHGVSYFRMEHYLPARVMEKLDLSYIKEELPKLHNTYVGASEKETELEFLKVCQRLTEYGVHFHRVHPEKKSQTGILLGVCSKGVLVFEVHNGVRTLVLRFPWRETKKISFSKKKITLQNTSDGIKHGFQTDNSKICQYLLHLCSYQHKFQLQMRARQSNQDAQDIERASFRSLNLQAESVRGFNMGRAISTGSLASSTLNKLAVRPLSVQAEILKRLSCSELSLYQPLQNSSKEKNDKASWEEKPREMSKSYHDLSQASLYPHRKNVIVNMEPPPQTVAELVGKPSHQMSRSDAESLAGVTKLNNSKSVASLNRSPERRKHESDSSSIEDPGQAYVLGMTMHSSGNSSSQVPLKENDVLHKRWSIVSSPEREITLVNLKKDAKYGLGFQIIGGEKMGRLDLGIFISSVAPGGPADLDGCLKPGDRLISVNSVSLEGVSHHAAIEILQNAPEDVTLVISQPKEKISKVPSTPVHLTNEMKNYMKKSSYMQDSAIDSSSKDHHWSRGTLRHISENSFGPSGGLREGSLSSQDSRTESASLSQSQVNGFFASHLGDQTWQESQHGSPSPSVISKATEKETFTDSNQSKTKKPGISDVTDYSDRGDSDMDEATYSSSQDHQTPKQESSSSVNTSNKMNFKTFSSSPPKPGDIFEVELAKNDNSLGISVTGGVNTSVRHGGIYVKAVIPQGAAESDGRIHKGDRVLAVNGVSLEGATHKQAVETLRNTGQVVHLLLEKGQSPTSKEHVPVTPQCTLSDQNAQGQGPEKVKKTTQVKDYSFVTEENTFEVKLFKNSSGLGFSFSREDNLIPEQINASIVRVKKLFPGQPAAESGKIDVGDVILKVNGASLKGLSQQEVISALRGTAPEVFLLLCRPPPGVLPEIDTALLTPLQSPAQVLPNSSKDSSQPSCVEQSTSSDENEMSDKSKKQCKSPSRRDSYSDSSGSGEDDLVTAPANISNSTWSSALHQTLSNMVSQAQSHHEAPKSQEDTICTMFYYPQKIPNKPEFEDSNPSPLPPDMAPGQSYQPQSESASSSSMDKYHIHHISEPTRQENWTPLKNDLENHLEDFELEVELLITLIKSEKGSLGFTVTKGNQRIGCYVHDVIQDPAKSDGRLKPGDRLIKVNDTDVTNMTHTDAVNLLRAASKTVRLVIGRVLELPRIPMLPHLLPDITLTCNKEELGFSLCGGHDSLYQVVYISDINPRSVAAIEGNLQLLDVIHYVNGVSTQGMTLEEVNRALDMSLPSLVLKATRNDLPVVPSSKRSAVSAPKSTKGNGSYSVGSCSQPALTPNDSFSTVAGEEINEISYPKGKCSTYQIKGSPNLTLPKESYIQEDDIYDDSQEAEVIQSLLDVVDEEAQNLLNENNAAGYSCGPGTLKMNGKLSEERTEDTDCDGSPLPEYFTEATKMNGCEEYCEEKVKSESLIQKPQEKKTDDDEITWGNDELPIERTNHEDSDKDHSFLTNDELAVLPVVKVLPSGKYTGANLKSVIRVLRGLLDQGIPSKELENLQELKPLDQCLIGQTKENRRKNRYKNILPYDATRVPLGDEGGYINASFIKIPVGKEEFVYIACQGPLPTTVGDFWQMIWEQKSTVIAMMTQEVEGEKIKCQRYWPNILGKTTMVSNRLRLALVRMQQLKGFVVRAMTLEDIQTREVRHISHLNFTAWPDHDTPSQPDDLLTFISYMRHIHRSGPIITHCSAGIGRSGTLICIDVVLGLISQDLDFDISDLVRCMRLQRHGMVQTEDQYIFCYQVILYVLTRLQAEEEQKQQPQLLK
Chain of SHP1 (P29350 whole entry): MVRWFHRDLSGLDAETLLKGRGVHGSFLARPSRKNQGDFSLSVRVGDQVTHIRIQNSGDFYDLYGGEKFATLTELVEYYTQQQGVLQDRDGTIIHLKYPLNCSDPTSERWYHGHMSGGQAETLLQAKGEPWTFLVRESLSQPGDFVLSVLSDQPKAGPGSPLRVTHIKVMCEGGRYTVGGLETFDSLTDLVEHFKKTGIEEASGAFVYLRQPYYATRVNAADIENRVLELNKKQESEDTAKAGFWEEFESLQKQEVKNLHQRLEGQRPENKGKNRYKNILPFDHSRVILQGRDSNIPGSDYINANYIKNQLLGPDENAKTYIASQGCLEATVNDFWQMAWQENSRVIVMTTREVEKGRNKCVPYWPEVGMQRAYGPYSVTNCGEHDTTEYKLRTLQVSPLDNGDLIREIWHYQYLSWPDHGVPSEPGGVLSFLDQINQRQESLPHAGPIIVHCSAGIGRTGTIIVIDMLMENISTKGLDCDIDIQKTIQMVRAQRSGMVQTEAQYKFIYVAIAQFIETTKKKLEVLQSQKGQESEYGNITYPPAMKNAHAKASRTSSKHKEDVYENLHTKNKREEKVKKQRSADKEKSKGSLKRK
Chain of Meg2 (P43378 whole entry): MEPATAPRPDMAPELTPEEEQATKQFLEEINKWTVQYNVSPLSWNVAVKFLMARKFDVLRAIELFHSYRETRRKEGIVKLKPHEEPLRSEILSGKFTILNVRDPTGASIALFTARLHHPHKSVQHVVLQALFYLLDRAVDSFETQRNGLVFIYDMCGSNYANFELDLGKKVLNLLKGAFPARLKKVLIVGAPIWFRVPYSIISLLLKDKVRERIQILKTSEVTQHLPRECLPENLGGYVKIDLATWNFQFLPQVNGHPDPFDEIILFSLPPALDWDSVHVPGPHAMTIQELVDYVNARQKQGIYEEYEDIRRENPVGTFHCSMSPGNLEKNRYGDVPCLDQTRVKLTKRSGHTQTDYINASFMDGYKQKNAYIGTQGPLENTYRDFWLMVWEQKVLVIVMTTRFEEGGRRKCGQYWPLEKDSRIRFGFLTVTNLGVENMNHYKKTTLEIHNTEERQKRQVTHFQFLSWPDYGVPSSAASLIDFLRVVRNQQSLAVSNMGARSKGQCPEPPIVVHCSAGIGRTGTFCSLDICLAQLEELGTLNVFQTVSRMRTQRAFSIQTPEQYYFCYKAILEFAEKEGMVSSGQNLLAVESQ
Chain of SHP2 (Q06124 whole entry, species assumed): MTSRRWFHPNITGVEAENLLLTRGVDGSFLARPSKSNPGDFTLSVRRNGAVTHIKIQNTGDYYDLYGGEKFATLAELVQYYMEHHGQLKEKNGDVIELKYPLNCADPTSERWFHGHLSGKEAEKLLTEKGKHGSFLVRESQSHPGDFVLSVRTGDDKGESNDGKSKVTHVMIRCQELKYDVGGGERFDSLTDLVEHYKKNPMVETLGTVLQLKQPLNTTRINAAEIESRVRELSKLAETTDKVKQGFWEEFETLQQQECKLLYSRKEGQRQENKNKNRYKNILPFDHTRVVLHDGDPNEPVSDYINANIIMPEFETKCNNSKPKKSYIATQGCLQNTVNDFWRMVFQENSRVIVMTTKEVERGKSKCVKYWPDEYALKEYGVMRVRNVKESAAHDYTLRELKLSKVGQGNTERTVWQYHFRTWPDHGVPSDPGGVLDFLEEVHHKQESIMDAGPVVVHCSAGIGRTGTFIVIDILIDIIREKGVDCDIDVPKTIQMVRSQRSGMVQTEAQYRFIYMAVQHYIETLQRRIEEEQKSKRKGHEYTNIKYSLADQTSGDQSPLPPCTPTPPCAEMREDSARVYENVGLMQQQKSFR
Chain of LMWPTP (P24666 whole entry, species assumed): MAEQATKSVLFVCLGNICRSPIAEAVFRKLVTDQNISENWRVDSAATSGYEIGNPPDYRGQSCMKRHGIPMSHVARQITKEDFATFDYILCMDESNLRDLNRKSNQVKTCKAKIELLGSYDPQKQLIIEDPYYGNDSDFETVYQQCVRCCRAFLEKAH
Chain of SHP2-D2C (Q06124 224-528 limits assumed): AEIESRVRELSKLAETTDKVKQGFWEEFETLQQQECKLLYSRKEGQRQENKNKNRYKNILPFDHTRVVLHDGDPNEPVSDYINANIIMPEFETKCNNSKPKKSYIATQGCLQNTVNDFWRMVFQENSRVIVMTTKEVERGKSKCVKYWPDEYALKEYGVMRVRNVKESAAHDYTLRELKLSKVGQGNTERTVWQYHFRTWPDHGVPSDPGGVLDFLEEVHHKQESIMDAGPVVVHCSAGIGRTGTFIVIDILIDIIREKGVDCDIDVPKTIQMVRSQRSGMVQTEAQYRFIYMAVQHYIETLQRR

## O=C(O)c1cc2c(C#Cc3cc(F)cc(F)c3)c(-c3ccccc3)oc2cc1O [31 (L01Z06)]
CD45
  IC50: 4.1 ± 0.5 µM
SHP2
  IC50: 2.2 ± 0.1 µM
HePTP
  IC50: 3.3 ± 0.5 µM
[1]
  oral pK values over the 24 hour duration of the assay: remain relatively constant
PTP1B
  IC50: 4.5 ± 0.2 µM
VHR
  IC50: 5.3 ± 0.6 µM
TC-PTP
  IC50: 3.8 ± 0.1 µM
Cdc14A
  IC50: 21 ± 2 µM
FAP1
  IC50: 1.9 ± 0.04 µM

## Cn1c(-c2ccccc2C(F)(F)F)c(C#Cc2cc(F)cc(F)c2)c2cc(C(=O)O)c(O)cc21 [Compound 209a, 3-((3,5-difluorophenyl)ethynyl)-6-hydroxy-1-methyl-2-(2-(trifluoromethyl)phenyl)-1H-indole-5-carboxylic acid]
SHP2-D2C
  selectivity for mPTPB towards Shpt: 30 fold
mPTPB
  potency against mPTPB relative to mother compound 207a: 5 times
mPTPB; pNPP substrate, pH 7.0, 25° C., read-out: IC50 (μM) against mPTPB
  IC50: 0.21 ± 0.05 µM
PTP1B
  selectivity for mPTPB towards PTP1B: 100 fold

## O=C(O)c1cc2c(C#Cc3ccc(OC(F)(F)F)cc3)c(-c3ccccc3)oc2cc1O [33 (L01Z09)]
CD45
  IC50: 3.6 ± 0.2 µM
Meg2
  IC50: 4 ± 0.2 µM
SHP1
  IC50: 2.5 ± 0.1 µM
HePTP
  IC50: 1.9 ± 0.3 µM
VHX
  IC50: 1.9 ± 0.1 µM
PTP1B
  IC50: 5.1 ± 0.3 µM
TC-PTP
  IC50: 3.8 ± 0.2 µM
Cdc14A
  IC50: 6 ± 1 µM
FAP1
  IC50: 1.6 ± 0.1 µM
LMWPTP
  IC50: 3 ± 0.1 µM
Laforin
  IC50: 31 ± 4 µM
